The target of assay [1] is T1, ERα AF2 site (GST-tagged ER-LBD) (Homo sapiens, UniProt P03372).
T1 construct: glutathione S-transferase (GST)-tagged ER-LBD (7.25 nM); purchased Life Technologies PV4544
T1 sequence (P03372 311-547 limits assumed): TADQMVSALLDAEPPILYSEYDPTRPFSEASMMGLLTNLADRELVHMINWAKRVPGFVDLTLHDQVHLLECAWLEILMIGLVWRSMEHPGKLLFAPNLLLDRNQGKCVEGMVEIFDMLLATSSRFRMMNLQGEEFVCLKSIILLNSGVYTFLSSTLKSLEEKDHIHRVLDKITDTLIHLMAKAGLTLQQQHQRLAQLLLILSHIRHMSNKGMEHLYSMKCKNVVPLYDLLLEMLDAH
Kind of assay: TR-FRET ERα coactivator (PGC-1α peptide) displacement assay. Format: biochemical. For orientation: TR-FRET usually uses a lanthanide donor and a delayed reading to cut background.
Description: Peptide displacement was assessed with the LanthaScreen TR-FRET ER Alpha Coactivator Assay kit (PV4544; Life Technologies) as per the instructions of the manufacturer. The compounds were tested in the range of 0.1 to 50 μM, and cold PGC-1α was added at threefold dilutions ranging from 1.8 to 50 μM.
Briefly, a twofold serial dilution of the test compounds was prepared at 100× final concentration in DMSO. The compounds were diluted 50-fold in complete assay buffer (assay buffer containing 5 mM dithiothreitol) to get a 2× final concentration and 2% DMSO. […] Ten microlitres of the diluted test compounds were added to a black, flat-bottomed, 384-well plate, followed by addition of 5 μl of the 4× ER-LBD mix.
Tb-labelled anti-GST antibody indirectly labels the ERα LBD by binding to a GST tag on the protein. […] The close proximity of fluorescein-PGC-1α to the terbium-labelled antibody causes an increase in the TR-FRET signal.

In assay [2] the target is T2, ERα LBD (Homo sapiens, UniProt P03372).
T2 construct: ERα LBD (peptides 302 to 552); made in house; host or cells: Escherichia coli BL21
T2 sequence (P03372 302-552): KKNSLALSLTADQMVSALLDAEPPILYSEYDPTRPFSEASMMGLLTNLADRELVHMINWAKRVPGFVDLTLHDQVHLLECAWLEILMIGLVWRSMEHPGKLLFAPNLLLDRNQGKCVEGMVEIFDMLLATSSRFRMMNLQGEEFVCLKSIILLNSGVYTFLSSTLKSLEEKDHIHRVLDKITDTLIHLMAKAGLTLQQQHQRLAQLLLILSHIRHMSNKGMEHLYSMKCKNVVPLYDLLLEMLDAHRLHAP
Description: Bio-layer interferometry assay. Format: binding. The conditions noted are these: 3 to 100 μM. An excerpt: The direct reversible interaction between small molecules and the ER-α was quantified by BLI using an Octet RED apparatus (Pall ForteBio, Menlo Park, CA, USA). The LDB of the biotinylated oestrogen receptor-alpha (bERα) was produced in situ with AviTag technology (Avidity, Aurora, CO, USA). […] A six-residue histidine tag was incorporated at the C-terminus of the ERα LBD for purification of the protein. […] The bacteria were then lysed by sonication, and the resulting lysate was purified by immobilised metal ion affinity chromatography with nickel agarose beads and cation exchange chromatography (HiTrap SP; GE Healthcare Life Sciences, Pittsburgh, PA, USA). […] The compounds were dissolved in the assay buffer in a twofold dilution series ranging from 3.1 to 100 μM.
The ERα LBD was biotinylated on the AviTag by a biotin ligase expressed by the bacterial cells cotransformed with the biotin ligase plasmid pBirACm. The bERα LBD was purified by nickel-affinity chromatography and immobilised on streptavidin-coated biosensor tips. The interaction between small molecule and protein was measured in real time as a shift in the interference pattern of the incident light. A response profile was generated on the Octet RED system.
On the technique in general: BLI is a label-free optical method that tracks binding on a fibre tip over time.

In assay [3] the test system is MCF7 cells. Description: MTS assay, MCF7. Format: cell-based, human. The conditions noted are these: MCF7, 96 h, 1 nM E2; read-out: IC50, growth inhibition. The method, then: (§1) Cells were seeded in 96-well plates at a density of 5 × 10^3 cells/well. MCF7, […]-MB-453 and HeLa cells were seeded in their respective media. […] After 96 hours, 30 μl of MTS reagent (CellTiter 96 AQueous One Solution Cell Proliferation Assay reagent; Promega) were added and incubated for 90 minutes at 37°C in 5% CO2. The production of formazan was measured at 490 nm.

The subject of assay [4] is TamR3 cells. Kind of assay: MTS assay, TamR3. Format: cell-based, human. As for the experimental part: as §1
On the technique in general: Formazan colour is commonly taken as a measure of viable cells.

The test system of assay [5] is TamR6 cells. Kind of assay: MTS assay, TamR6. Format: cell-based, human. The method, then: as §1
Assay [6] deals with pS2, cathepsin D and CDC2 mRNA. Description: Quantitative RT-PCR of oestrogen-responsive genes in MCF7 cells. It is filed as cell-based, human. The conditions noted are these: MCF7, 24 h. As for the experimental part: mRNA levels were analysed by quantitative RT-PCR (qRT-PCR). For this purpose, serum-starved MCF7 cells were seeded onto six-well plates at a density of 6 × 10^5 cells/well. […] RNA was isolated after 24 hours with TRIzol reagent (Life Technologies) and purified with the RNeasy Mini Kit (QIAGEN, Valencia, CA, USA). The purified mRNA was quantified using a NanoDrop spectrophotometer (NanoDrop, Wilmington, DE, USA). RNA (0.5 μg) was reverse-transcribed using the iScript synthesis kit (Bio-Rad Laboratories, Hercules, CA, USA). cDNA product (100 ng) was added to the primer mix. The final concentration of the primers was 5 pM. The sequences of the primers used in the qRT-PCR experiments were as follows: pS2, forward [NT] and reverse [NT]; cathepsin D, forward [NT] and reverse [NT]; CDC2, forward [NT] and reverse [NT]; glyceraldehyde 3-phosphate dehydrogenase (GAPDH), forward [NT] and reverse [NT]. The fold change in expression of the gene was calculated using the 2^-ΔΔCt method with GAPDH as the internal control.

Assay [7] relates to pS2, cathepsin D and CDC2 protein. Kind of assay: Western blotting of oestrogen-responsive gene products in MCF7 cells. Format: cell-based, human. The conditions noted are these: MCF7, 24 h, 1 nM E2; 12 and 6 μM. As for the experimental part:
MCF7 cells were serum-starved in phenol red–free RPMI 1640 containing 10% CSS for 5 days. […] After 24 hours, the medium was aspirated, and the cells were washed with ice-cold phosphate-buffered saline. Cells were lysed in 1× radioimmunoprecipitation assay buffer containing one tablet of cOmplete protease inhibitor cocktail (Roche Life Science, Indianapolis, IN, USA). Cell debris was pelleted by centrifugation at 15,000 g for 10 minutes at 4°C. The supernatants were collected and quantified using the BCA assay. In each case, 25 μg of protein was loaded onto 15% (v/v) SDS-PAGE gels, separated and transferred to polyvinylidene fluoride membrane. Membranes were incubated with pS2, cathepsin D and CDC2 antibodies or control α-actin antibody. Bound antibodies were detected using horseradish peroxidase–conjugated secondary antibodies. Chemiluminescence was detected with an Amersham ECL detection kit (GE Healthcare Life Sciences), and bands were visualised using the G:BOX imager (Syngene, Frederick, MD, USA).

Assay [8] has as its target T3, oestrogen receptor-alpha (ERα) (Homo sapiens, UniProt P03372).
T3 sequence (P03372 1-595): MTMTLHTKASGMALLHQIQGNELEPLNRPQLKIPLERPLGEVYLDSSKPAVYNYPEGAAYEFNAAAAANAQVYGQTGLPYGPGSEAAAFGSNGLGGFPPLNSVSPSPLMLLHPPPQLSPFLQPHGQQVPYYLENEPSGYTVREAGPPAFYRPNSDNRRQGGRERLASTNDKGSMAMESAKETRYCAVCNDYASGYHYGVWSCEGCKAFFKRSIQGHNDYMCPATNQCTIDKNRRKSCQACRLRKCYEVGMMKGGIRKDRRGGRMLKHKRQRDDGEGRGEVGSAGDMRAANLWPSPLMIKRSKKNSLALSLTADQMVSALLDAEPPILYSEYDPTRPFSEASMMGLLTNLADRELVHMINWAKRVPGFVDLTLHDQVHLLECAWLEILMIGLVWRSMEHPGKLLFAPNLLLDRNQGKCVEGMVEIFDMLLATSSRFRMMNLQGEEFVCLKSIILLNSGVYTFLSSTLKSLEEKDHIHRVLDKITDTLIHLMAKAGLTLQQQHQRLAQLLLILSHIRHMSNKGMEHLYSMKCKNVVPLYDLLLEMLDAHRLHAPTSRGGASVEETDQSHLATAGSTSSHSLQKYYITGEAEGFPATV
Kind of assay: Transiently transfected E2-responsive luciferase reporter in TamR3 cells. Also noted: endogenous in cells. As to conditions: TamR3, 1 nM E2; read-out: IC50, transcriptional inhibition of transiently transfected E2-responsive luciferase reporter. Format: cell-based. As for the experimental part: (§2) For transient transfection, we used pGL2.TATA.Inr.luc plasmid, which contains three copies of vitellogenin oestrogen response element (ERE) upstream of the TATA promoter (3X ERE TATA luc; Addgene plasmid 11354). This is the same plasmid used to construct pGL2.TATA.Inr.luc.neo, used to create the stable cell line T47D-KBluc.
(§3) TamR3 and TamR6 cells were grown in phenol red–free RPMI 1640 supplemented with 10% CSS and 1 μM tamoxifen. The cells were seeded on a 96-well plate (2 × 10^4 cells/well). After 24 hours, the cells were cotransfected with 50 ng each of the ERα-responsive luciferase plasmid and a constitutive Renilla reporter (to normalise for variations in transfection efficiency) using TransIT-2020 reagent (Mirus Bio, Madison, WI, USA). […] The compounds were added in a twofold dilution ranging from 0.1 to 50 μM. […] The medium contained 0.1% (v/v) ethanol and 0.1% (v/v) DMSO. Twenty-four hours after treatment, the medium was aspirated and the cells were lysed by adding 50 μl of 1× passive lysis buffer (Promega). Luciferase activities were assayed using the Dual-Luciferase Reporter Assay System (Promega).

For assay [9], the target named is T3, oestrogen receptor-alpha (ERα). Kind of assay: Transiently transfected E2-responsive luciferase reporter in TamR6 cells. It is filed as cell-based. On the set-up: endogenous in cells. The conditions noted are these: TamR6, 1 nM E2; read-out: IC50, transcriptional inhibition of transiently transfected E2-responsive luciferase reporter. The method, then: as §2, §3

The target is the same in assay [10]. Description: Luciferase oestrogen receptor-alpha transcriptional assay in T47D-KBluc cells. Format: cell-based. Also noted: endogenous in cells; host or cells: T47D-KBluc. The method, then: ERα-positive T47D-KBluc human BCa cells were grown in phenol red–free RPMI 1640 supplemented with 10% CSS for 5 days. The cells were seeded on a 96-well plate (2 × 10^4 cells/well). […] The test compounds were screened at two concentrations: 12 μM and 30 μM. […] The medium contained 0.1% (v/v) ethanol and 0.1% (v/v) DMSO. Twenty-four hours after treatment, the medium was aspirated and the cells were lysed by adding 50 μl of 1× passive lysis buffer (Promega, Madison, WI, USA). The plates were placed on a shaker at room temperature for 15 minutes and then subjected to two freeze–thaw cycles to help lyse the cells. Next, 20 μl of the lysate from each treatment was transferred onto a white, 96-well, flat-bottomed plate (Corning Life Sciences, Corning, NY, USA), and the luminescent signal was measured after adding 50 μl of the luciferase assay reagent (Promega) on a TECAN M200 PRO microplate reader (Tecan, Männedorf, Switzerland). Differences in growth were normalised against total protein concentration, which was measured by bicinchoninic acid (BCA) assay.

Assay [11] deals with T4, biotinylated oestrogen receptor-alpha ligand-binding domain (bERα LBD) (human, UniProt P03372 302-552, biotin on the AviTag).
T4 construct: Assay buffer held 0.02 mM E2
T4 sequence (looked up): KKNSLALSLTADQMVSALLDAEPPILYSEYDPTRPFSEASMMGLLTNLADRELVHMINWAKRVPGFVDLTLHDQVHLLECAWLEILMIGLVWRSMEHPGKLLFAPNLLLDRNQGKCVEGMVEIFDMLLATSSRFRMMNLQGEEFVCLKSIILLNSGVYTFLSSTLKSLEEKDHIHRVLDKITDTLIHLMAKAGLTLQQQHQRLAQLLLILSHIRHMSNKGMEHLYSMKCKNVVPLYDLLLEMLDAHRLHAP
Description: BLI; Octet RED; bERα LBD bound to Super Streptavidin Sensors; 20 mM Tris pH 7.5, 500 mM NaCl, 0.2 mM TCEP, 0.02 mM E2, 5% glycerol, 5% DMSO; PGC-1α peptide in solution as positive control. As to conditions: both partners purified.

Broadly, the IC50 is the concentration that inhibits the measured activity by half.

Several values for one entry are separate records, joined by “and”; a condition that tells them apart may be missing. Equal entries are not always repeated. Entries after “also recorded” stand apart in the source; their conditions may differ.

For the molecule `CCOc1cc(Br)cc(/C=N/NC(=O)c2ccc3c(c2)OCCO3)c1O` [VPC-16230], the IC50 in assay [1] (TR-FRET, read-out: IC50, displacement of PGC-1α peptide from the AF2 site) was 2.98 µM; in [3], 7.8 µM; in assay [4] (TamR3, 96 h, 1 nM E2, read-out: IC50, growth inhibition) it was 3.4 µM; in [5] (TamR6, 96 h, 1 nM E2, read-out: IC50, growth inhibition) it was 6.3 µM; in assay [8], 4.7 µM; in assay [9], 4.7 µM. Further, the IC50 is 5.81 µM and 5.8 µM in assay [10] (T47D-KBluc cells, 1 nM E2, 24 h, read-out: IC50, inhibition of ERα transcriptional activity (luciferase reporter)); 6.1 µM in [10] (read-out: IC50, luciferase assay at varied E2, T47D-KBluc, E2 1 nM); 6.5 µM in assay [10] (read-out: IC50, luciferase assay at varied E2, T47D-KBluc, E2 100 nM). In addition, in [1] (fluorescein-PGC-1α 250, 500, 1000 nM, compounds 0.05 to 400 μM), the “Shift of dose-response curve with increasing fluorescein-PGC-1α” value is “rightward shift”. Also, in assay [2], the “Binding to ERα LBD by BLI” value was “direct and reversible interaction”. Further, the “mRNA levels of pS2, cathepsin D and CDC2” value is listed as “did not significantly inhibit; also recorded: did not significantly decrease” in assay [6] (in the absence of E2, 12, 6 and 3 μM); “considerably reduced; also recorded: significantly decreased” in assay [6] (in the presence of 1 nM E2, 12 and 6 μM). For the same molecule, the “Protein levels of pS2, cathepsin D and CDC2” value in assay [7] was “decreased”. The “Shift of the IC50 curve in the presence of higher concentrations of E2” value in [10] (T47D-KBluc, E2 1, 10, 50, 100 nM) is “did not show any significant shift”.
For `CC/C(=C(\c1ccccc1)c1ccc(OCCN(C)C)cc1)c1ccccc1` [tamoxifen, reference compound], the “Growth in the presence of 1 μM tamoxifen” value in assay [4] (TamR3, 1 μM in the medium) is recorded as “not affected”; in assay [5] (TamR6, 1 μM in the medium), “not affected”.
For the molecule “cold PGC-1α peptide: Cold PGC-1α coactivator peptide (EAEEPSLLKKLLLAPANTQ), known AF2-interacting control [reference compound]”, the “FRET signal with increasing concentration of cold peptide” value in assay [1] (1.8 to 50 μM) is given as “dose-dependent decrease”. In addition, in assay [2], the “Binding to ERα LBD by BLI” value is “direct and reversible interaction”.

B1: Cold peroxisome proliferator-activated receptor gamma, coactivator 1-alpha (PGC-1α) peptide (peptide)
peptide: EAEEPSLLKKLLLAPANTQ
notes: also called cold PGC-1α peptide; cold PGC-1α; source: synthetic peptide (Elim Biopharmaceuticals)
In the case of B1, the binding result in [11] was “binds”.

(Values after paper PMC4360945, “In silico discovery and validation of potent small-molecule inhibitors targeting the activation function 2 site of human oestrogen receptor α” (Breast Cancer Research : BCR, 2015).)
